Assay results as given in BigSolDB 2.1.

COc1cccc(C=O)c1O
solubility (mole fraction)
Conditions	273.15 K	278.15 K	283.15 K	288.15 K	293.15 K	298.15 K	303.15 K
in ethanol	0.0401	0.0526	0.0774	0.138	0.226	0.38	0.615
in n-propanol	0.0312	0.0388	0.0552	0.0807	0.134	0.299	0.554
in water	–	0.000268	0.000332	0.0004	0.000496	0.000578	0.000786
